Read-outs that look alike come from different tables or passages of the source.
Experiments:
[1] = tested on: BV-2 cells; assay: Cell viability (MTT analysis) of beta-amyloid treated BV-2 cells; assay type: cell-based; conditions: Mus musculus, BV-2 cells, average of three experiments; for viability at 0.1 µM: compound 100 nM for 24 hours after 50 μM beta-amyloid for 2 hours; for viability at 1 µM: compound 1000 nM for 24 hours after 50 μM beta-amyloid for 2 hours; for viability at 0.5 µM: BV-2, read-out: cell viability by MTT analysis, compound 500 nM for 24 hours after 50 μM beta-amyloid for 2 hours
Procedure: Beta-amyloid (Aβ25-35, Sigma Chemical Co., St. Louis, Mo., USA) was diluted with aseptic desalted water and preservative solution (1 mM, GIBCO), and kept in aliquots at −70° C. To the treatment of beta-amyloid, beta-amyloid preservative solution was diluted to desired concentrations in a treatment medium (DMEM, GIBCO). The reagents were newly provided as a preservative solution (10 mM) under DMSO (dimethylsulfoxide), and diluted in treatment medium to desired concentrations.
BV-2 microglia cells (allotted from Pharmacology Division of Ajou University) were cultivated in DMEM (Dulbecco's Modified Eagle's Medium) supplemented with 5% fetal bovine serum (Invitrogen, Carlsbad, Calif., USA), sou/Ml penicillin (Invitrogen, Carlsbad, Calif., USA), and 50 μg/Ml streptomycin (Invitrogen, Carlsbad, Calif., USA) under the atmosphere condition with 5% CO2 and 95% air at 37° C. The medium was replaced once a day, the cells were plate-cultured in a density according to the scale of each experiment.
BV-2 cells were plate-cultured in 96-well plate at the density of 5×10^4, the cell viability was measured according to a conventional MTT analysis method and lactate dehydrogenase (LDH) analysis method. The MTT analysis depends on the metabolism ability of mitochondria of living cell, and reflexes intracellular redox states. The cultured cells were treated with MTT a solution (final concentration: 1 mg/Ml) for 4 hours. Deep blue formazan crystal generated in the original cells was dissolved in a lysis buffer, and then, the absorbance was detected at 595 nm with microplate reader. The LDH activity released from the culture medium was detected, which was evaluated as a cell death index. The culture medium was added to a reagent (test, Sigma Chemical Co, St. Louis, Mo., USA) containing sodium lactate, NADH and sodium pyruvate, and then, the absorbance reduction by NADH at 340 nm was measured. The result was calculated assuming that the LDH activity in homogenate solution of the non-treated control is 100%.
[…] For microscope analysis, BV-2 cells were used in 6-well plate at the density of 5×10^5 cells/well, for MTT analysis, BV-2 cells were used in 96-well plate at the density of 5×10^4 cells/well.
The obtained prevention effects of KHG25967 compound on toxicity induced by beta-amyloid in BV-2 cells were FIGS. 1A and 1b.
For MTT analysis, BV-2 cells were used on 96-well plate in the density of 5×10^4 cells/well. The quantitative analysis results (unit: %) for the cell viability obtained by MTT analysis were shown in Table 2, wherein the values are represented by the average of three experiments per each concentration.

[2] = compound 50 μM for 24 hours after 50 μM beta-amyloid for 2 hours, read-out: cell viability by MTT analysis

| melting point [°C] | SMILES | viability at 50 µM [1, 2] [%] | other results |
| --- | --- | --- | --- |
| 257 | Cc1ccc(CNC(=O)Nc2nc3ccccc3s2)cc1 [KHG25948, 1-(benzo[d]thiazole-2-yl)-3-(4-methylbenzyl)urea] | 30 |  |
| 294 | CCCCOC(=O)CNC(=O)Nc1nc2ccccc2s1 [KHG25954, butyl 2-(3-benzo[d]thiazole-2-ylureido)acetate] | 48 |  |
| 291 | CCOC(=O)CNC(=O)Nc1nc2ccc(F)cc2s1 [KHG25956, ethyl 2-(3-(6-fluorobenzo[d]thiazole-2-yl)ureido)acetate] | 36 |  |
|  | CCOC(=O)CNC(=O)Nc1nc2ccc(Cl)cc2o1 [KHG25989, ethyl 2-(3-(6-chlorobenzo[d]oxazole-2-yl)ureido)acetate] | 55 |  |
|  | Cc1ccc(CNC(=O)Nc2nc3ccc(Cl)cc3o2)cc1 [KHG25990] | 37 |  |
| 278 | CCOC(=O)CCCNC(=O)Nc1nc2ccccc2s1 [KHG26004, ethyl 4-(3-benzo[d]thiazole-2-ylureido)butanoate] | 37 |  |
| 256 | CCOC(=O)CCNC(=O)Nc1nc2ccccc2s1 [KHG26005, ethyl 3-(3-benzo[d]thiazole-2-ylureido)propanoate] | 40 |  |
| 281.9 | CCOC(=O)CNC(=O)Nc1nc2ccc(OC)cc2s1 [KHG26019, ethyl 2-(3-(6-methoxybenzo[d]thiazole-2-yl)ureido)acetate] | 47 |  |
| 264 | CCOC(=O)CCNC(=O)Nc1nc2ccccc2[nH]1 [KHG26027, ethyl 3-(3-1H-benzo[d]imidazole-2-ylureido)propanoate] | 45 |  |
| 277 | CCOC(=O)CCCNC(=O)Nc1nc2ccccc2[nH]1 [KHG26028, ethyl 4-(3-1H-benzo[d]imidazole-2-ylureido)butanoate] | 34 |  |
| 157 | CCOC(=O)CNC(=O)Nc1nc2ccccc2n1C [KHG26029, ethyl 2-(3-(1-methyl-1H-benzo[d]imidazole-2-yl)ureido)acetate] | 70 | viability at 0.1 µM [1]: 86%; viability at 1 µM [1]: 73% |
| 105 | CCOC(=O)CCNC(=O)Nc1nc2ccccc2n1C [KHG26030, ethyl 3-(3-(1-methyl-1H-benzo[d]imidazole-2-yl)ureido)propanoate] | 75 | viability at 0.1 µM [1]: 60%; viability at 1 µM [1]: 76% |
| 81 | CCOC(=O)CCCNC(=O)Nc1nc2ccccc2n1C [KHG26031, ethyl 4-(3-(1-methyl-1H-benzo[d]imidazole-2-yl)ureido)butanoate] | 56 |  |
|  | O=C(O)CNC(=O)Nc1nc2ccccc2s1 [KHG26096, potassium 2-(3-benzo[d]thiazole-2-ylureido)acetate] |  | viability at 0.5 µM [1]: 72% |
|  | COc1ccc2nc(NC(=O)NCC(=O)O)sc2c1 [KHG26175, potassium 2-(3-(6-methoxybenzo[d]thiazole-2-yl)ureido)acetate] |  | viability at 0.5 µM [1]: 76% |
|  | Cn1c(NC(=O)NCCC(=O)O)nc2ccccc21 [KHG26222, potassium 3-(3-(1-methyl-1H-benzo[d]imidazole-2-yl)ureido)propanoate] |  | viability at 0.5 µM [1]: 33% |
|  | CCNC(=O)Nc1nc2ccccc2s1 [KHG26332, 1-(benzo[d]thiazole-2-yl)-3-ethylurea] |  | viability at 50 µM ([1]; BV-2, read-out: cell viability by MTT analysis, compound 50 μM for 24 hours after 50 μM beta-amyloid for 2 hours): 18% |
| 264 | CCOC(=O)CNC(=O)Nc1nc2ccc(OCC)cc2s1 [KHG26347, ethyl 2-(3-(6-ethoxybenzo[d]thiazole-2-yl)ureido)acetate] |  |  |
| 197 | CCOc1ccc2nc(NC(=O)NCC(=O)O)sc2c1 [KHG26348, 2-(3-(6-ethoxybenzo[d]thiazole-2-yl)ureido)acetic acid] |  |  |
| 295 | CCOC(=O)CNC(=O)Nc1nc2ccc(Cl)cc2s1 [KHG26349, ethyl 2-(3-(6-chlorobenzo[d]thiazole-2-yl)ureido)acetate] |  |  |
| 213 | CCOC(=O)CNC(=O)Nc1nc2c(Cl)cccc2s1 [KHG26351, ethyl 2-(3-(4-chlorobenzo[d]thiazole-2-yl)ureido)acetate] |  |  |
| 268 | CCOC(=O)CNC(=O)Nc1nc2cc(C)c(C)cc2s1 [KHG26353, ethyl 2-(3-(5,6-dimethylbenzo[d]thiazole-2-yl)ureido)acetate] |  |  |
| 197 | Cn1c(NC(=O)NCCCC(=O)O)nc2ccccc21 [KHG26358, 4-(3-(1-methyl-1H-benzo[d]imidazole-2-yl)ureido)butanoic acid] |  |  |

| SMILES | melting point [°C] | viability at 50 µM [1, 2] [%] | other results |
| --- | --- | --- | --- |
| O=C(O)CCCNC(=O)Nc1nc2ccccc2s1 [KHG26025, 4-(3-benzo[d]thiazole-2-ylureido)butanoic acid] | 210 | 90 | viability at 0.1 µM [1]: 73%; viability at 1 µM [1]: 89% |
| O=C(O)CCNC(=O)Nc1nc2ccccc2s1 [KHG26026, 3-(3-benzo[d]thiazole-2-ylureido)propanic acid] | 243 | 82 | viability at 0.1 µM [1]: 66%; viability at 1 µM [1]: 85% |
| Cn1c(NC(=O)NCC(=O)[O-])nc2ccccc21.[K+] [KHG26172, potassium 2-(3-(1-methyl-1H-benzo[d]imidazole-2-yl)ureido)acetate] | 229 |  | viability at 0.5 µM [1]: 68% |
| O=C([O-])CNC(=O)Nc1nc2ccc(Cl)cc2s1.[K+] [KHG26177, potassium 2-(3-(6-chlorobenzo[d]thiazole-2-yl)ureido)acetate] | 237 |  | viability at 0.5 µM [1]: 62% |
| O=C([O-])CNC(=O)Nc1nc2c(Cl)cccc2s1.[K+] [KHG26178, potassium 2-(3-(4-chlorobenzo[d]thiazole-2-yl)ureido)acetate] | 259 |  | viability at 0.5 µM [1]: 59% |
| Cc1cc2nc(NC(=O)NCC(=O)[O-])sc2cc1C.[K+] [KHG26180, potassium 2-(3-(5,6-dimethylbenzo[d]thiazole-2-yl)ureido)acetate] | 278 |  | viability at 0.5 µM [1]: 62% |
| Cc1ccc2nc(NC(=O)NCC(=O)[O-])sc2c1.[K+] [KHG26216, potassium 2-(3-(6-methylbenzo[d]thiazole-2-yl)ureido)acetate] | 236 |  | viability at 0.5 µM [1]: 62% |
| Cc1cccc2sc(NC(=O)NCC(=O)[O-])nc12.[K+] [KHG26217, potassium 2-(3-(4-methylbenzo[d]thiazole-2-yl)ureido)acetate] | 264.4 |  | viability at 0.5 µM [1]: 49% |
| O=C([O-])CCNC(=O)Nc1nc2ccccc2s1.[K+] [KHG26220, potassium 3-(3-benzo[d]thiazole-2-ylureido)propanoate] | 249 |  | viability at 0.5 µM [1]: 33% |
| COc1ccc2nc(NC(=O)NCC(=O)O)sc2c1 [KHG26346, 2-(3-(6-methoxybenzo[d]thiazole-2-yl)ureido)acetic acid] | 198.3 |  |  |
| O=C(O)CNC(=O)Nc1nc2ccc(Cl)cc2s1 [KHG26350, 2-(3-(6-chlorobenzo[d]thiazole-2-yl)ureido)acetic acid] | 216 |  |  |
| O=C(O)CNC(=O)Nc1nc2c(Cl)cccc2s1 [KHG26352, 2-(3-(4-chlorobenzo[d]thiazole-2-yl)ureido)acetic acid] | 198 |  |  |
| Cc1cc2nc(NC(=O)NCC(=O)O)sc2cc1C [KHG26354, 2-(3-(5,6-dimethylbenzo[d]thiazole-2-yl)ureido)acetic acid] | 198 |  |  |
| Cc1ccc2nc(NC(=O)NCC(=O)O)sc2c1 [KHG26355, 2-(3-(6-methylbenzo[d]thiazole-2-yl)ureido)acetic acid] | 201 |  |  |
| Cc1cccc2sc(NC(=O)NCC(=O)O)nc12 [KHG26356, 2-(3-(4-methylbenzo[d]thiazole-2-yl)ureido)acetic acid] | 203 |  |  |
| Cn1c(NC(=O)NCCC(=O)O)nc2ccccc21 [KHG26357, 3-(3-(1-methyl-1H-benzo[d]imidazole-2-yl)ureido)propane acid] | 237 |  |  |

Reference: US9012481B2, “Benzoarylureido compounds, and composition for prevention or treatment of neurodegenerative brain disease containing the same” (Korea Institute of Science and Technology, priority 2009, dated 2015)
